Publication PMC10893631, “Receptor-based pharmacophore modeling, molecular docking, synthesis and biological evaluation of novel VEGFR-2, FGFR-1, and BRAF multi-kinase inhibitors” (BMC Chemistry, 2024)
Like-named read-outs stand apart in the source and are kept apart here.

How the values were obtained:
Type in all cases: cell-based, human
[1] = system: NCI panel of 60 tumor cell lines; experiment: NCI SRB growth inhibition, whole panel mean (single dose 10 µM / five-dose); settings: Homo sapiens; for GI50: mean over NCI cancer cell lines, five-dose
Outline: (§1)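 Test agents were dissolved in DMSO at 400-fold the top final concentration, diluted in medium with 50 µg/mL gentamicin, and tested at five concentrations.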

CAKI-1 = experiment: NCI SRB growth inhibition (single dose 10 µM / five-dose); settings: Homo sapiens; for inhibition at 10 µM: CAKI-1 (Renal cancer), read-out: GI%; for GI50: CAKI-1, Renal cancer, five-dose
Outline: as §1

HCT-116 = experiment: as above; settings: Homo sapiens, HCT-116; for inhibition at 10 µM: read-out: GI%
Outline: as §1

UACC-62 = experiment: as above; settings: Homo sapiens; for inhibition at 10 µM: UACC-62 (Melanoma), read-out: GI%; for GI50: UACC-62, Melanoma, five-dose
Outline: as §1

OVCAR-8 = experiment: as above; settings: Homo sapiens; for inhibition at 10 µM: OVCAR-8 (Ovarian cancer), read-out: GI%; for GI50: OVCAR-8, Ovarian cancer, five-dose
Outline: as §1

TK-10 = experiment: as above; settings: Homo sapiens; for inhibition at 10 µM: TK-10 (Renal cancer), read-out: GI%; for GI50: TK-10, Renal cancer, five-dose
Outline: as §1

MCF7 = experiment: as above; settings: Homo sapiens; for inhibition at 10 µM: MCF7 (Breast cancer), read-out: GI%; for GI50: MCF7, Breast cancer, five-dose
Outline: as §1

SF-539 = experiment: as above; settings: Homo sapiens; for inhibition at 10 µM: SF-539 (CNS cancer), read-out: GI%; for GI50: SF-539, CNS cancer, five-dose
Outline: as §1

HL-60(TB) = experiment: as above; settings: Homo sapiens; for inhibition at 10 µM: HL-60(TB) (Leukemia), read-out: GI%; for GI50: HL-60(TB), Leukemia, five-dose
Outline: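 TCA fixation ends the assay for adherent lines; unbound SRB is rinsed off five times with 1% acetic acid. Drug is added from a DMSO concentrate at 400× the maximum final concentration, made up to 2× in gentamicin-containing medium, then halved on addition to wells.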

SW-620 = experiment: as above; settings: Homo sapiens; for inhibition at 10 µM: SW-620 (Colon cancer), read-out: GI%; for GI50: SW-620, Colon cancer, five-dose
Outline: as §1

UACC-257 = experiment: as above; settings: Homo sapiens; for inhibition at 10 µM: UACC-257 (Melanoma), read-out: GI%; for GI50: UACC-257, Melanoma, five-dose
Outline: as §1

HS 578 T = experiment: as above; settings: Homo sapiens; for inhibition at 10 µM: HS 578 T (Breast cancer), read-out: GI%; for GI50: HS 578 T, Breast cancer, five-dose
Outline: as §1

MOLT-4 = experiment: as above; settings: Homo sapiens; for inhibition at 10 µM: MOLT-4 (Leukemia), read-out: GI%; for GI50: MOLT-4, Leukemia, five-dose
Outline: as §1

COLO 205 = experiment: as above; settings: Homo sapiens; for inhibition at 10 µM: COLO 205 (Colon cancer), read-out: GI%; for GI50: COLO 205, Colon cancer, five-dose
Outline: as §1

HCC-2998 = experiment: as above; settings: Homo sapiens; for inhibition at 10 µM: HCC-2998 (Colon cancer), read-out: GI%; for GI50: HCC-2998, Colon cancer, five-dose
Outline: as §1

OVCAR-5 = experiment: as above; settings: Homo sapiens; for inhibition at 10 µM: OVCAR-5 (Ovarian cancer), read-out: GI%; for GI50: OVCAR-5, Ovarian cancer, five-dose
Outline: as §1

A549/ATCC = experiment: as above; settings: Homo sapiens; for inhibition at 10 µM: A549/ATCC (Non-small cell lung cancer), read-out: GI%; for GI50: A549/ATCC, Non-small cell lung cancer, five-dose
Outline: as §1

UO-31 = experiment: as above; settings: Homo sapiens; for inhibition at 10 µM: UO-31 (Renal cancer), read-out: GI%; for GI50: UO-31, Renal cancer, five-dose
Outline: as §1

BT-549 = experiment: as above; settings: Homo sapiens; for inhibition at 10 µM: BT-549 (Breast cancer), read-out: GI%; for GI50: BT-549, Breast cancer, five-dose
Outline: as §1

786–0 = experiment: as above; settings: Homo sapiens; for inhibition at 10 µM: 786–0 (Renal cancer), read-out: GI%
Outline: as §1

MDA-MB-468 = experiment: as above; settings: Homo sapiens; for inhibition at 10 µM: MDA-MB-468 (Breast cancer), read-out: GI%; for GI50: MDA-MB-468, Breast cancer, five-dose
Outline: as §1

SR = experiment: as above; settings: Homo sapiens; for inhibition at 10 µM: SR (Leukemia), read-out: GI%; for GI50: SR, Leukemia, five-dose
Outline: as §1

MALME-3 M = experiment: as above; settings: Homo sapiens; for inhibition at 10 µM: MALME-3 M (Melanoma), read-out: GI%; for GI50: MALME-3 M, Melanoma, five-dose
Outline: as §1

[2] = mean over NCI 60 cell lines, > 100% = lethal effect, read-out: mean growth inhibition % (GI%)
[3] = mean over NCI panel of 60 tumor cell lines, read-out: Mean growth inhibition %

Compound: COc1cccc(C=NNC(=O)c2ccc3[nH]c(-c4ccccc4)nc3c2)c1 [8c, N'-(3-Methoxybenzylidene)-2-phenyl-1H-benzo[d]imidazole-5-carbohydrazide]
- inhibition at 10 µM [1, 2]: 20.7%
- inhibition at 10 µM [1, 3]: 20.7%
- inhibition at 10 µM (CAKI-1): 10%
- inhibition at 10 µM (HCT-116): 12.7%
- inhibition at 10 µM (UACC-62): 14.7%
- inhibition at 10 µM (OVCAR-8): 24.5%
- inhibition at 10 µM (TK-10): < 5%
- inhibition at 10 µM (MCF7): 51%
- inhibition at 10 µM (SF-539): 28.6%
- inhibition at 10 µM (HL-60(TB)): 38.1%
- inhibition at 10 µM (SW-620): < 5%
- inhibition at 10 µM (UACC-257): 14.6%
- inhibition at 10 µM (HS 578 T): 20%
- inhibition at 10 µM (MOLT-4): 35.4%
- inhibition at 10 µM (COLO 205): 32.6%
- inhibition at 10 µM (HCC-2998): < 5%
- inhibition at 10 µM (OVCAR-5): < 5%
- inhibition at 10 µM (A549/ATCC): 20.1%
- inhibition at 10 µM (UO-31): 30.6%
- inhibition at 10 µM (BT-549): < 5%
- inhibition at 10 µM (786–0): 21.3%
- inhibition at 10 µM (MDA-MB-468): 22.7%
- inhibition at 10 µM (SR): 36.3%
- inhibition at 10 µM (MALME-3 M): 47.1%

Compound: COc1cccc(C=NNC(=O)c2ccc3[nH]c(-c4ccc(Cl)cc4)nc3c2)c1O [8r, 2-(4-Chlorophenyl)-N'-(2-hydroxy-3-methoxybenzylidene)-1H-benzo[d]imidazole-5-carbohydrazide]
- inhibition at 10 µM [1, 2]: > 100%
- GI50 [1]: 3.39 µM
- inhibition at 10 µM [1, 3]: > 100%
- inhibition at 10 µM (CAKI-1): > 100%
- GI50 (CAKI-1): 2.31 µM
- GI50 (HCT-116): 1.19 µM
- inhibition at 10 µM (HCT-116): > 100%
- inhibition at 10 µM (UACC-62): > 100%
- GI50 (UACC-62): 1.23 µM
- inhibition at 10 µM (OVCAR-8): > 100%
- GI50 (OVCAR-8): 1.58 µM
- inhibition at 10 µM (TK-10): > 100%
- GI50 (TK-10): 6.46 µM
- inhibition at 10 µM (MCF7): > 100%
- GI50 (MCF7): 0.66 µM
- inhibition at 10 µM (SF-539): > 100%
- GI50 (SF-539): 1.07 µM
- inhibition at 10 µM (HL-60(TB)): > 100%
- GI50 (HL-60(TB)): 1.95 µM
- inhibition at 10 µM (SW-620): > 100%
- GI50 (SW-620): 1.32 µM
- inhibition at 10 µM (UACC-257): > 100%
- GI50 (UACC-257): 2.35 µM
- inhibition at 10 µM (HS 578 T): > 100%
- GI50 (HS 578 T): 0.7 µM
- inhibition at 10 µM (MOLT-4): > 100%
- GI50 (MOLT-4): 0.63 µM
- inhibition at 10 µM (COLO 205): > 100%
- GI50 (COLO 205): 2.33 µM
- inhibition at 10 µM (HCC-2998): > 100%
- GI50 (HCC-2998): 1.48 µM
- inhibition at 10 µM (OVCAR-5): > 100%
- GI50 (OVCAR-5): 2.17 µM
- inhibition at 10 µM (A549/ATCC): > 100%
- GI50 (A549/ATCC): 3.68 µM
- inhibition at 10 µM (UO-31): > 100%
- GI50 (UO-31): 2.07 µM
- inhibition at 10 µM (BT-549): > 100%
- GI50 (BT-549): 1.36 µM
- inhibition at 10 µM (786–0): > 100%
- GI50 (786–0; 786–0, Renal cancer, five-dose): 1.49 µM
- inhibition at 10 µM (MDA-MB-468): > 100%
- GI50 (MDA-MB-468): 1.44 µM
- inhibition at 10 µM (SR): > 100%
- GI50 (SR): 0.5 µM
- inhibition at 10 µM (MALME-3 M): > 100%
- GI50 (MALME-3 M): 1.36 µM

Compound: COc1ccc(-c2nc3cc(C(=O)NN=Cc4ccccc4O)ccc3[nH]2)cc1 [8h, N'-(2-Hydroxybenzylidene)-2-(4-methoxyphenyl)-1H-benzo[d]imidazole-5-carbohydrazide]
- inhibition at 10 µM [1, 2]: > 100%
- GI50 [1]: 2.98 µM
- inhibition at 10 µM [1, 3]: > 100%
- inhibition at 10 µM (CAKI-1): > 100%
- GI50 (CAKI-1): 1.78 µM
- GI50 (HCT-116): 4.93 µM
- inhibition at 10 µM (HCT-116): > 100%
- inhibition at 10 µM (UACC-62): > 100%
- GI50 (UACC-62): 2.53 µM
- inhibition at 10 µM (OVCAR-8): > 100%
- GI50 (OVCAR-8): 1.97 µM
- inhibition at 10 µM (TK-10): > 100%
- GI50 (TK-10): 6.19 µM
- inhibition at 10 µM (MCF7): > 100%
- GI50 (MCF7): 1.67 µM
- inhibition at 10 µM (SF-539): > 100%
- GI50 (SF-539): 2.05 µM
- inhibition at 10 µM (HL-60(TB)): 82.9%
- GI50 (HL-60(TB)): 2.09 µM
- inhibition at 10 µM (SW-620): > 100%
- GI50 (SW-620): 1.75 µM
- inhibition at 10 µM (UACC-257): 85%
- GI50 (UACC-257): 6.32 µM
- inhibition at 10 µM (HS 578 T): > 100%
- GI50 (HS 578 T): 0.94 µM
- inhibition at 10 µM (MOLT-4): 88.5%
- GI50 (MOLT-4): 1.7 µM
- inhibition at 10 µM (COLO 205): > 100%
- GI50 (COLO 205): 2.9 µM
- inhibition at 10 µM (HCC-2998): 99.6%
- GI50 (HCC-2998): 4.43 µM
- inhibition at 10 µM (OVCAR-5): > 100%
- GI50 (OVCAR-5): 6.55 µM
- inhibition at 10 µM (A549/ATCC): > 100%
- GI50 (A549/ATCC): 3.03 µM
- inhibition at 10 µM (UO-31): > 100%
- GI50 (UO-31): 1.7 µM
- inhibition at 10 µM (BT-549): > 100%
- GI50 (BT-549): 6.99 µM
- inhibition at 10 µM (786–0): > 100%
- inhibition at 10 µM (MDA-MB-468): > 100%
- GI50 (MDA-MB-468): 2.98 µM
- inhibition at 10 µM (SR): 85.9%
- GI50 (SR): 1.17 µM
- inhibition at 10 µM (MALME-3 M): > 100%
- GI50 (MALME-3 M): 1.77 µM
